Measured values from patent publication US7524849B2, “5-arylpyrimidines as anticancer agents” (Wyeth Holdings Corporation, priority 2003, dated 2009).
Where two headings read alike, the source gives them in different places. Marks after values point to notes of the source that are not given here.

Assays:
[1] = test system: MAP-rich tubulin; experiment: Tubulin polymerization test with MAP-rich tubulin; format: biochemical, bovine; details: 0.3 μM compound, mean A340 at 20 min, fold enhancement over control
Method: Medium is RPMI-1640 with L-glutamine, supplemented with 10% heat-inactivated fetal calf serum, 100 units/mL penicillin, and 100 μg/mL streptomycin (Gibco, Grand Island, N.Y.). Microtubule-associated protein (MAP)-rich tubulin, containing about 70% tubulin and 30% MAPs (#ML113), and highly purified tubulin (>99% pure, #TL238), both from bovine brain, are obtained from Cytoskeleton, Inc., Denver, Colo. PEM buffer (80 mM piperazine-N,N′-bis[2-ethanesulfonic acid], pH 6.9, 1 mM ethylene glycol-bis(β-aminoethyl ether)-N,N,N′,N′-tetraacetic acid, 1 mM magnesium chloride) and guanosine 5′-triphosphate (GTP) are also obtained from Cytoskeleton. […] [^3H]vinblastine, specific activity 9.60 Ci/mmol and MicroSpin G-50 columns are obtained from Amersham Biosciences (Piscataway, N.J.). […] Other reagents are obtained from Sigma (St. Louis, Mo.).
MAP-rich tubulin is dissolved in ice-cold PEM buffer containing 1 mM GTP (GPEM buffer) at a concentration of 1.3 mg/mL. The solution is centrifuged at top speed in an Eppendorf model 5415C microcentrifuge (Brinkmann Instruments, Westbury, N.Y.) for 10 min at 4° immediately before use. The tubulin solution is added to wells of a ½-area 96-well plate (Costar No. 3696, Corning, Inc., Corning, N.Y.) already containing the compounds of interest. Each compound is tested in duplicate at a final concentration of 0.3 μM in a volume of 110 μL per well. The final DMSO concentration in all wells is 0.3%. Control reactions, which receive compound solvent only, are done in quadruplicate. The plate is put in a SpectraMax Plus plate reader (Molecular Devices Corp. Sunnyvale, Calif.) thermostated at 24° and the absorbance of each well at 340 nm, a measure of the appearance of turbidity due to tubulin polymer formation, is determined every minute for 60 minutes. The absorbance at time 0 for each well is subtracted from each of the subsequent absorbance readings for that well, and then the duplicates are averaged.

[2] = test system: KB cells; experiment: MTS cytotoxicity test with KB cells; format: cell-based, human; details: mean of 2 experiments
Excerpt: (§1) Human cancer cell lines, unless otherwise noted, are obtained from the American Type Culture Collection (Rockville, Md.). The following drug-sensitive parental cell lines, and their derived drug-resistant counterparts, are obtained from the originators as listed: (a) S1 (parental line from a subclone of human colon carcinoma line LS174T) and derived S1-M1-3.2 (herein called S1-M1) which expresses the MXR drug transporter protein, are provided by Dr. L. Greenberger, Wyeth Research (Rabindran, S. K., He, H., Singh, M., Brown, E., Collins, K. I., Annable, T., and Greenberger, L. M. Reversal of a novel multidrug resistance mechanism in human colon carcinoma cells by fumitremorgin C. Cancer Res., 58: 5850-5858, 1998); (b) parental HL-60 human promyelocytic leukemia line and derived HL-60/ADR, which expresses the MRP1 drug transporter protein, are provided by Dr. M. Center, University of Kansas (McGrath, T., and Center, M. S. Adriamycin resistance in HL60 cells in the absence of detectable P-glycoprotein. Biochem. Biophys. […] J. Biol. Chem., 261: 7762-7770, 1986) via Dr. L. Greenberger, Wyeth Research.
(§2) The assay, which is sold in kit form by Promega (Madison, Wis.; CellTiter 96 AQueous Non-Radioactive Cell Proliferation Assay), is based on the conversion by viable cells, but not by dead cells, of the tetrazolium salt, MTS (3-(4,5-dimethylthiazol-2-yl)-5-(3-carboxymethoxyphenyl)-2-(4-sulphophenyl)-2H-tetrazolium, inner salt), into a water-soluble colored formazan which is detected by spectrophotometry. Compounds are tested at nine concentrations, in order to determine IC50 values. For the test procedure, cells are harvested by trypsinization, washed, counted and distributed to wells of 96-well flat-bottom microtiter plates at 1000 cells per well in 200 μL of medium. In addition, one row of wells on a separate plate receives cells as above (“time 0” plate). All plates are incubated at 37° in humidified 5% CO2 in air for about 24 hr.
(§3) On day 2, compounds for test are diluted and added to wells. Compounds are dissolved in DMSO at 10 mg/mL. For each compound, nine serial 2-fold dilutions are prepared in DMSO. Ten μL of each dilution in DMSO are transferred to 100 μL of medium, mixed well, and then 5 μL of this dilution are transferred in quadruplicate to wells containing cells. […] Plates are returned to the incubator for three days. At the time of drug addition to the experimental plates, the MTS assay is run on the “time 0” plate. This produces the “time 0 MTS value” which is related to the number of viable cells per well at the time of drug addition.
(§4) After three days of culture with test compounds (day 5 overall), the MTS assay is done on all wells of the experimental plates. The absorbance values of the quadruplicate sample wells are averaged and divided by the average of the “time 0” values. […] The nine values for each compound are plotted against concentration, and the concentration that produces a relative color yield half way between the maximum and minimum is taken as the IC50 value.

[3] = test system: KB-8-5 cells; experiment: MTS cytotoxicity test with KB-8-5 cells (moderate P-glycoprotein); format: cell-based, human; details: for IC50: KB 8.5 cells, mean of 2 experiments; for Ratio 8.5/KB: IC50 on KB 8.5 cells/IC50 on KB cells
Excerpt: as §1, §2, §3, §4

[4] = test system: KB-V1 cells; experiment: MTS cytotoxicity test with KB-V1 cells (very high P-glycoprotein); format: cell-based, human; details: for IC50: KB VI cells, mean of 2 experiments; for Ratio VI/KB: IC50 on KB VI cells/IC50 on KB cells; for recognition by P-glycoprotein: inferred from change in IC50 KB-V1 vs KB
Excerpt: as §1, §2, §3, §4

[5] = test system: HL-60 cells; experiment: MTS cytotoxicity test with HL-60 cells; format: cell-based, human; details: mean of 2 experiments
Excerpt: as §1, §2, §3, §4
(§5) HL-60/ADR cells overexpress the multidrug resistance protein MRP1 which mediates resistance to some chemotherapeutics (Gottesman, M. M., Fojo, T., and Bates, S. E. Multidrug resistance in cancer: role of ATP-dependent transporters. Nature Rev. Cancer, 2: 48-58, 2002). The IC50 values of representative examples of this invention, as well as reference compounds, on HL-60/ADR are compared to values on the sensitive parental HL-60 line.

[6] = test system: HL-60/ADR cells; experiment: MTS cytotoxicity test with HL-60/ADR cells (MRP1); format: cell-based, human; details: for IC50: HL-60/ADR cells, mean of 2 experiments; for Ratio: IC50 on HL-60/ADR cells/IC50 on HL-60 cells
Excerpt: as §1, §2, §3, §4, §5

[7] = test system: S1 cells; experiment: MTS cytotoxicity test with S1 cells; format: cell-based, human; details: mean of 2 experiments
Excerpt: as §1, §2, §3, §4
as §5, with “S1-M1” for “HL-60/ADR”, “MXR transporter” for “multidrug resistance protein MRP1”, “Miltidrug” for “Multidrug”, “S1” for “HL-60”

[8] = test system: S1-M1 cells; experiment: MTS cytotoxicity test with S1-M1 cells (MXR); format: cell-based, human; details: for IC50: S1-M1 cells, mean of 2 experiments; for Ratio: IC50 on S1-M1 cells/IC50 on S1 cells
Excerpt: as §1, §2, §3, §4
as §5, with “S1-M1” for “HL-60/ADR”, “MXR transporter” for “multidrug resistance protein MRP1”, “Miltidrug” for “Multidrug”, “S1” for “HL-60”

[9] = test system: COLO 205 cells; experiment: MTS cytotoxicity test with COLO 205 cells; format: cell-based, human; details: three days with compound
Method: as §2
On day 2, compounds for test are diluted and added to wells. Compounds are dissolved in DMSO at 10 mg/mL. For each compound, nine serial 2-fold dilutions are prepared in DMSO. Ten μL of each dilution in DMSO are transferred to 100 μL of medium, mixed well, and then 5 μL of this dilution are transferred in quadruplicate to wells containing cells. The final high concentration of each compound is typically 5 μM. Plates are returned to the incubator for three days. At the time of drug addition to the experimental plates, the MTS assay is run on the “time 0” plate. This produces the “time 0 MTS value” which is related to the number of viable cells per well at the time of drug addition.
After three days of culture with test compounds (day 5 overall), the MTS assay is done on all wells of the experimental plates. The absorbance values of the quadruplicate sample wells are averaged and divided by the average of the “time 0” values. The average of control wells without drug, divided by the average “time 0” value, gives the maximal relative increase in MTS color yield due to cell growth during the final three days of culture. The average of control wells with high drug concentration, divided by the “time 0” value, gives the minimal relative color yield for cells that were completely killed. The nine values for each compound are plotted against concentration, and the concentration that produces a relative color yield half way between the maximum and minimum is taken as the IC50 value.
COLO 205 is a human colon carcinoma cell line that is used for comparative testing of the examples of this invention and several reference compounds. This line is sensitive to paclitaxel and vincristine.

[10] = test system: H157 Human Non-Small Cell Lung Carcinoma; details: for T/C on day 0 / T/C on day 3 / T/C on day 7 / T/C on day 10 / T/C on day 13: schedule day 0;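 for all read-outs here: subcutaneous flank tumors in female athymic nu/nu mice, staged near 100 mm^3 on day 0, tumor volume from caliper measurements, vehicle-dosed controls on the same schedule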
Method: The ability of compounds of this invention to inhibit tumor growth in animals is studied in the athymic mouse xenograft standard pharmacological test. Female nu/nu mice in an outbred albino background are obtained from Charles River Laboratories (Wilmington, Mass.). Animals are injected subcutaneously on the flank with the desired tumor cell suspension. Several days later, mice with tumors of approximately 100 mm^3 are selected from those injected (staged) and randomly distributed into groups of 5-10. The day of staging is called day 0. Compounds of the invention, formulated in saline, are administered to animals by intravenous injection or oral gavage on various schedules starting on day 0 or 1, as noted in the tables. The control group in each experiment is dosed with vehicle on the same schedule. Tumor size is measured every 3-7 days with calipers in two orthogonal dimensions, and tumor volume is calculated from the formula volume=[(length×width^2)/2].
Tumor/Control (T/C) is obtained by dividing the mean tumor volume of the treated group by the mean tumor volume of the control group on each measurement day. […] A p value≦0.05, determined by one-side Student's t-test, is required for statistical significance. A treatment dose is defined as toxic if more than 30% of the animals die from a compound-related toxicity.

CC(=O)O[C@@]12CO[C@@H]1C[C@H](O)[C@@]1(C)C(=O)[C@H](O)C3=C(C)[C@@H](OC(=O)[C@H](O)[C@@H](NC(=O)OC(C)(C)C)c4ccccc4)C[C@@](O)([C@@H](OC(=O)c4ccccc4)[C@H]21)C3(C)C [Docetaxel, reference compound]
A340 Compound / A340 Control [1]: 8.6

COc1cccc2c1C(=O)c1c(O)c3c(c(O)c1C2=O)C[C@@](O)(C(=O)CO)C[C@@H]3O[C@H]1C[C@H](N)[C@H](O)[C@H](C)O1 [Doxorubicin, reference compound]
IC50 ([2]; Homo sapiens): 38 nM
IC50 ([3]; Homo sapiens): 255 nM
Ratio 8.5/KB [3]: 6.8
IC50 ([4]; Homo sapiens, KB-V1): > 300 nM
Ratio VI/KB [4]: >79
Ratio VI/KB ([4]; listed as doxorubicin): > 79
IC50 ([5]; Homo sapiens): 40 nM
IC50 ([6]; Homo sapiens, HL60/ADR): > 3000 nM
Ratio [6]: >75
Ratio ([6]; listed as doxorubicin): > 75
IC50 ([7]; Homo sapiens): 61 nM
IC50 ([8]; Homo sapiens): 2880 nM
Ratio [8]: 47

CNc1nc(Cl)c(-c2c(F)cc(OCCCN(C)C)cc2F)c(NCC(F)(F)F)n1.O=C(O)C(F)(F)F [Example 20a, 6-Chloro-5-{4-[3-(dimethylamino)propoxy]-2,6-difluorophenyl}-N^2-methyl-N^4-(2,2,2-trifluoroethyl)pyrimidine-2,4-diamine trifluoroacetic acid salt]
IC50 ([9]; Homo sapiens, 72 h): 56 nM
IC50 ([2]; Homo sapiens): 26 nM
IC50 ([3]; Homo sapiens): 57 nM
IC50 ([4]; Homo sapiens, KB-V1): 140 nM
Ratio VI/KB [4]: 5.5
recognition by P-glycoprotein [4]: show recognition by P-glycoprotein, but much less than that shown by paclitaxel and vincristine
IC50 ([5]; Homo sapiens): 72 nM
IC50 ([6]; Homo sapiens, HL60/ADR): 68 nM
Ratio [6]: 0.9
IC50 ([7]; Homo sapiens): 95 nM
IC50 ([8]; Homo sapiens): 82 nM
Ratio [8]: 0.9

CN(C)CCCOc1cc(F)c(-c2c(Cl)nc(-c3cnccn3)nc2NCC(F)(F)F)c(F)c1.Cl [Example 25a, 6-Chloro-5-{4-[3-(dimethylamino)propoxy]-2,6-difluorophenyl}-2-pyrazin-2-yl-N-(2,2,2-trifluoroethyl)pyrimidin-4-amine hygrogen chloride]
IC50 [9]: 18 nM
IC50 [2]: 20 nM
IC50 [3]: 24 nM
Ratio VI/KB [4]: 4.9
IC50 [4]: 99 nM
recognition by P-glycoprotein [4]: show recognition by P-glycoprotein, but much less than that shown by paclitaxel and vincristine
IC50 [5]: 23 nM
IC50 [6]: 21 nM
Ratio [6]: 0.9
IC50 [7]: 27 nM
Ratio [8]: 1.3
IC50 [8]: 36 nM
T/C on day 0 ([10]; 5 mg/kg IV, H157 (Table 10)): 1.02
T/C on day 3 ([10]; 5 mg/kg IV, H157 (Table 10)): 0.69*
T/C on day 7 ([10]; 5 mg/kg IV, H157 (Table 10)): 0.44**
T/C on day 10 ([10]; 5 mg/kg IV, H157 (Table 10)): 0.29**
T/C on day 13 ([10]; 5 mg/kg IV, H157 (Table 10)): 0.23**
T/C on day 0 ([10]; 10 mg/kg IV, H157): 1.01
T/C on day 3 ([10]; 10 mg/kg IV, H157): 0.49**
T/C on day 7 ([10]; 10 mg/kg IV, H157): 0.36**
T/C on day 10 ([10]; 10 mg/kg IV, H157): 0.22**
T/C on day 13 ([10]; 10 mg/kg IV, H157): 0.12**
compound toxicity ([10]; H157 NSCLC, intravenously on day 0, highest dose (10 mg/kg)): some compound toxicity is observed

CN(C)CCCOc1cc(F)c(-c2c(Cl)nc(-c3ccc4ccccc4n3)nc2NCC(F)(F)F)c(F)c1 [Example 30, 6-Chloro-5-{4-[3-(dimethylamino)propoxy]-2,6-difluorophenyl}-2-quinolin-2-yl-N-(2,2,2-trifluoroethyl)pyrimidin-4-amine]
IC50 ([9]; Homo sapiens, 72 h): 7.4 nM
IC50 ([2]; Homo sapiens): 60 nM
IC50 ([3]; Homo sapiens): 68 nM
IC50 ([4]; Homo sapiens, KB-V1): 82 nM
IC50 ([5]; Homo sapiens): 88 nM
IC50 ([6]; Homo sapiens, HL60/ADR): 71 nM
Ratio [6]: 0.8
IC50 ([7]; Homo sapiens): 138 nM
IC50 ([8]; Homo sapiens): 201 nM
Ratio [8]: 1.5

O=C1c2c(O)ccc(O)c2C(=O)c2c(NCCNCCO)ccc(NCCNCCO)c21 [Mitoxantrone, reference compound]
IC50 ([2]; Homo sapiens): 132 nM
IC50 ([3]; Homo sapiens): 256 nM
Ratio 8.5/KB [3]: 1.9
IC50 ([4]; Homo sapiens, KB-V1): 401 nM
Ratio VI/KB [4]: 3.0
IC50 ([5]; Homo sapiens): 17 nM
IC50 ([6]; Homo sapiens, HL60/ADR): 259 nM
Ratio [6]: 15
IC50 ([7]; Homo sapiens): 25 nM
IC50 ([8]; Homo sapiens): > 3000 nM
Ratio [8]: >120
Ratio ([8]; listed as mitoxantrone): > 120
